{"source": "patent US7053064B2", "about": "“Compounds for the treatment of tobacco dependence and withdrawal” (The McLean Hospital Corporation, priority 2002, dated 2006)", "key": {"mammals": {"system": "mammals", "conditions": "cited from earlier work"}, "humans": {"system": "humans", "conditions": "cited from earlier work"}, "[1]": {"conditions": "cited from earlier work"}, "human subjects": {"system": "human subjects", "assay": "effects of citicoline on tobacco use (cigarettes smoked per day) versus placebo", "type": "in vivo", "conditions": "compared to placebo, FIG. 1", "from_the_text": "FIG. 1 is a graph of the effects of citicoline on tobacco use."}, "[2]": {"conditions": "cited from earlier work", "remark": "listed apart in the source"}, "[3]": {"conditions": "major excretion route, % of dose"}}, "note": "Where two headings read alike, the source gives them in different places."}
{"smiles": "O=c1ccn([C@@H]2O[C@H](CO)[C@@H](O)[C@H]2O)c(=O)[nH]1", "note": "[uridine]", "values": [{"measurement": "tolerability", "setting": "mammals; mammals", "result": "well tolerated"}, {"measurement": "tolerability", "setting": "humans", "result": "well tolerated"}]}
{"smiles": "CC(=O)OC[C@H]1O[C@@H](n2ccc(=O)[nH]c2=O)[C@H](OC(C)=O)[C@@H]1OC(C)=O", "note": "[triacetyl uridine]", "values": [{"measurement": "tolerability", "setting": "mammals; in vivo", "result": "well tolerated"}]}
{"smiles": "C[N+](C)(C)CCOP(=O)(O)OP(=O)([O-])OC[C@H]1O[C@@H](n2ccc(N)nc2=O)[C@H](O)[C@@H]1O", "note": "[CDP-choline, cytidine 5′-diphosphocholine]", "values": [{"measurement": "tolerability", "setting": "mammals; mammals", "result": "well tolerated"}, {"measurement": "reported cases of overdoses", "setting": "[1]; in vivo", "result": "no reported cases of overdoses"}, {"measurement": "toxicity symptoms on ingestion of large amounts", "setting": "[1]; preclinical studies, salivation, lacrimation, urination, defecation, vomiting", "result": "common cholinergic symptoms"}, {"measurement": "usage of tobacco (number of cigarettes smoked per day)", "setting": "human subjects", "result": "reduces the usage of tobacco"}, {"measurement": "rest of the dose metabolized and retained in tissues", "setting": "[2]; % of dose", "result": 83.9, "unit": "%"}, {"measurement": "conversion into circulating metabolites", "setting": "[2]; administered either orally or intravenously", "result": "rapidly converted into the two major circulating metabolites, choline and cytidine"}, {"measurement": "excretion via lung", "setting": "[2]; [3]", "result": 12.9, "unit": "%"}, {"measurement": "excretion via urine", "setting": "[2]; [3]", "result": 2.4, "unit": "%"}, {"measurement": "CDP-choline and/or its metabolites absorbed", "setting": "[2]; orally administered", "result": "more than 99%"}, {"measurement": "excreted in feces", "setting": "[2]; orally administered", "result": "less than 1%"}]}
{"smiles": "CN(CC(=O)O)C(=N)N", "note": "[Creatine, creatine]", "values": [{"measurement": "tolerability", "setting": "humans", "result": "well tolerated at relatively high doses"}]}
